Data on 4 compounds can be found in patent US11890279B2, “Quinolines that modulate SERCA and their use for treating disease” (Neurodon Corporation, priority 2020, dated 2024).

SMILES strings stand for the structures.

In one data set the test system is Ca^2+-ATPase. Nature of the data set: Ca2+-ATPase assay, microsomal preparations from HEK 293 cells. The class given is biochemical, human. How it is done: A Ca^2+-ATPase assay was performed using microsomal preparations from HEK 293 cells at a series of calcium concentrations corresponding to the physiological range, relative to controls. The ATP hydrolysis rate was measured over a range of calcium concentrations in the presence of test compounds using an NADH-linked, enzyme-coupled ATPase assay adapted for 96-well microplates, with Vmax determined by fitting the ATPase calcium-dependence to the Hill function. […] CaCl2 was added to set free [Ca^2+] to the specific values.

In the next data set the test system is human islet microtissues. Nature of the data set: Protection of human pancreatic islets under cytokine stress. The class given is cell-based. Conditions: 168 h, compound 5 μM, cytokine cocktail IL1-β, IFN-γ, TNF-α, 7 days, read-out: increase in viability over baseline (total ATP content). As for the experimental part: Human pancreatic islet microtissues treated with cytokines were used to model the conditions of Type 1 Diabetes in vitro. This study tested the effects of compounds on […] viability in human islets under cytokine stress. The model consisted of human islet microtissues from an HLA-A2 positive donor grown and separated in a 96-well plate (1 microtissue per well). The microtissues were treated for 7 days with a cocktail of cytokines (IL1-β 5 ng/mL, IFN-γ 25 ng/mL, TNF-α 25 ng/mL) and compound (5 μM) or vehicle. There were 6 microtissues treated per compound or vehicle. At day 7, the total ATP content was measured using CellTiter-Glo (Promega).

The subject of a further data set is SERCA (SR vesicles). Nature of the data set: Activation of SERCA, increase in Vmax. Format: biochemical.
A short description of data set [1]: Pharmacokinetics in Sprague Dawley rats. Format: in vivo, rat. Conditions: rat; for AUC(0-t): read-out: AUC0-t; for MRT inf: read-out: MRT0-∞; for Vd: read-out: Vz; for F: PO 10 mg/kg vs IV 2 mg/kg. How it is done: Blood was drawn at 5 min, 15 min, 30 min, 1 hr, 2 hrs, 4 hrs, 6 hrs, and 8 hrs into EDTA containing tubes and plasma was harvested by centrifugation. Plasma (25 μL) was treated with acetonitrile (125 μL) containing an internal standard. The sample was then centrifuged for 5 min at 4,000 rpm in a tabletop centrifuge and the filtrate was collected. The filtrate was injected onto a Thermo Betasil C18 HPLC column 5 (50×2.1 mm). Mobile Phase A was water with 0.1% formic acid. Mobile Phase B was acetonitrile with 0.1% formic acid. […] An API Sciex 4000 equipped with a turbo ion spray source was used for all analytical measurements. A positive ion MRM method was developed. Peak areas of the product ion were measured against the peak areas of the internal standard. Data was fit using WinNonLin (Pharsight Corporation, Mountain View, CA).

The nature of data set [2]: Pharmacokinetics in Beagle dogs. The class given is in vivo. Conditions: dog; for MRT inf: read-out: MRT0-∞. As for the experimental part: Pharmacokinetics of compound A13 was assessed in dogs. […] For pharmacokinetic evaluation, 3 male Beagle dogs were intravenously (IV) dosed (1 mg/kg body weight) and 3 male Beagle dogs were orally (PO) dosed (10 mg/kg body weight) with a test compound. Blood (approximately 1.0 mL) was collected via femoral vein into tubes containing K3EDTA anticoagulant at 0, 0.017, 0.083, 0.5, 1, 2, 4, 6, 8, and 24 hours post-dosing. Plasma samples were analyzed by LC-MS/MS. The analytical results were confirmed using quality control samples for intra-assay variation. The accuracy of >66% of the quality control samples was between 80-120% of the known value(s). A standard set of pharmacokinetic parameters were generated from concentration data including Area Under the Curve (AUC0-t and AUC0-inf), elimination half-lives, clearances, volume of distribution and bioavailabilities (based on AUC0-t), maximum plasma concentration (C0; Cmax), and time to reach maximum plasma concentration (Tmax).

Data set [3] in a line: Pharmacokinetics in CD-1 mice. Format: in vivo, mouse. The following applies: for F / AUC / Cmax / half-life: CD-1 mice; for F: 10 mg/kg P.O. vs 2 mg/kg i.v.; for AUC / Cmax / half-life: mouse, plasma, 2 mg/kg i.v. or 10 mg/kg P.O.; for pharmacokinetic properties as measured by CMAX, AUC and F (%): compared with other SERCA modulators, see Table 6. The method in brief:
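CD-1 mice (triplicate) dosed 2 mg/kg i.v. or 10 mg/kg oral gavage, formulated 1 mg/mL in DMSO/Tween 80/water (10/10/80). EDTA plasma sampled 0.25–24 h, acetonitrile-precipitated and quantified by positive-ion MRM LC/MS/MS against internal standard; PK parameters fitted from concentration–time data.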

Another data set has as its system CSM14.1 cells. In words: ER stress cell survival assay (thapsigargin).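 For cell survival: survival read as CellTiter-Glo luminescence after overnight incubation.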 Format: cell-based. Conditions: for Cell Survival: compound 2 μM, about 15 μM thapsigargin, CSM14.1 cells.
The test system of a further data set is HEK293 cells. Nature of the data set: Protection against thapsigargin (TG)-induced cell death, HEK293. The following applies: compound 20 μM; thapsigargin 15 μM; 24 hrs. The class given is cell-based, human. As for the experimental part:
(§1) Protection against Thapsigargin (TG)-induced Cell-death. Human embryonic kidney (HEK293) cells were grown in Dulbecco's Modified Eagle's Medium (DMEM) with 10% FBS and 1% antibiotic antimycotic solution (ABAM). Mouse neuroblastoma (N2a) cells were grown in 1:1 DMEM:OPTI-MEM® with 5% FBS and 1% ABAM. All cells were grown in 10% CO2 in a humidified environment of the incubator. Cells grown in 96-well plates were exposed to a test compound (20 μM) for 2 hrs before addition of thapsigargin (15 μM for HEK293 cells and 1 μM for N2a cells) to induce ER stress. After incubation in cell-culture incubator for 24 hrs, ALAMARBLUE® regent (10% v/v) was added to the wells. Fluorescence reading was taken 2 hrs after the addition of the ALAMARBLUE® regent. Cell-viability was calculated as a percentage of relative fluorescence unit (RFU) compared to control.
(§2) The results are summarized in Table 2, where A represents a value greater than 50% cell rescue, B represents a value between 10% to 50% cell rescue, C represents a value between 1% to 10% cell rescue, and D represents a value no greater than 1% cell rescue.

In data set [4] the test system is N2a cells. Nature of the data set: Protection against thapsigargin (TG)-induced cell death, N2a. The class given is cell-based, mouse. Conditions: compound 20 μM; thapsigargin 1 μM; 24 hrs. As for the experimental part: as §1, §2
In data set [5] the test system is N2a cells. Nature of the data set: Protection against hydrogen peroxide-induced cell death, N2a. Format: cell-based, mouse. The following applies: compound 40 μM; hydrogen peroxide 200 μM. The method in brief: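 N2a cells were pretreated 2 h with compound at 40 μM, then exposed to 200 μM H2O2 for 40 min. AlamarBlue (10% v/v) was added and fluorescence read 2 h later. Viability expressed as % RFU of control, reported as % cell rescue.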

The test system of another data set is ob/ob mice. Nature of the data set: Effect on the level of blood glucose in ob/ob mice. Format: in vivo, mouse. Conditions: for blood glucose: 10 or 50 mg/kg i.p. once a day for 5 days, as early as day 2; for glucose level after the last injection: for over a week after the last injection. How it is done: Fasting glucose was measured at baseline and 10 hours after the administration of the test compound. Glucose levels were measured in blood samples drawn from the tail vein using the OneTouch Ultra 2 Meter (LifeScan, Inc.).

[6] abbreviates: Sprague Dawley, in vivo, IV 2 mg/kg.
[7] abbreviates: Sprague Dawley, in vivo, PO 10 mg/kg.
The mark [8] stands for this setting: male, Beagle, plasma, IV 1 mg/kg.
[9] abbreviates: male, Beagle, plasma, PO 10 mg/kg.

Experimental for SERCA (SR vesicles): Test compounds were characterized over a range of concentrations using an NADH-linked, enzyme-coupled ATPase assay. Each well contained 2 mg or 7 mg of SR vesicles (optimized for skeletal or cardiac SR, respectively), 50 mM MOPS (pH 7.0), 100 mM KCl, 5 mM MgCl2, 1 mM EGTA, 0.2 mM NADH, 1 mM phosphoenol pyruvate, 5 IU pyruvate kinase, 5 IU lactate dehydrogenase, and 3.5 mg/mL A23187 (a calcium ionophore), and CaCl2 was added to set free [Ca2+] to the specific values. The assay was started upon addition of ATP at a final concentration of 5 mM, and read in a SpectraMax Plus microplate spectrophotometer and the ATPase activities were fitted using the Hill function.

With `Cc1ccc2cccc(NC(=O)c3cccc(OC(C)C)c3)c2n1` [Compound A13, 3-Isopropoxy-N-(2-methylquinolin-8-yl)benzamide], the “increase in baseline ATPase activity” value in the data set with Ca^2+-ATPase is 10-15%. Moreover, the viability at 5 µM with human islet microtissues was 20 to 50%. Further, the “Increase in Vmax at 10 μM” value in the data set with SERCA (SR vesicles) is on record as “B′ (B′ represents an increase between 20 to 50%)”. Moreover, in data set [1] (setting [6]), the AUC(0-inf) worked out at 0.847 ± 0.029 µg·h/mL, the Cmax came out at 8.37 ± 1.1 µM, the Tmax was found to be 4.8 min and the clearance was 2.36 L/h/kg. In [1] (setting [6]), the half-life is 121 min, the AUC(0-t) turned out to be 0.842 ± 0.031 µg·h/mL, the MRT inf was determined as 27 min and the Vd amounted to 6.87 L/kg. In [1] (setting [7]), the AUC(0-inf) is 0.234 ± 0.154 µg·h/mL, the highest level (Cmax) was 0.8 ± 0.35 µM, the Tmax turned out to be 25.2 min and the half-life was 22.8 min. For the same compound, in data set [1] (setting [7]), the AUC(0-t) stood at 0.232 ± 0.154 µg·h/mL and the MRT inf was 38.4 min. In addition, the F in [1] was 5.5%. In data set [2] (PO 10 mg/kg vs IV 1 mg/kg), this compound had an F of 1.4%. For the same compound, in [2] (setting [8]), the AUC(0-inf) stood at 0.096 ± 0.012 µg·h/mL, the AUC(0-t) was 0.095 ± 0.012 µg·h/mL, the concentration peaked (Cmax) at 2.2 ± 0.5 µM and the Tmax amounted to 1.2 min. Further, in data set [2] (setting [8]), the clearance was 10.6 L/h/kg, the half-life was 20.4 min and the MRT inf came out at 12.6 min. The Vd in data set [2] (male, Beagle, plasma, IV 1 mg/kg, read-out: Vz) was 5.4 L/kg. Also, in data set [2] (setting [9]), the concentration peaked (Cmax) at 0.08 ± 0.06 µM, the Tmax was determined as 21.6 min, the half-life is 22.2 min and the MRT inf stood at 37.2 min. In data set [3], the F amounted to 3.1%, the area under the curve (AUC) was determined as 0.026 µg·h/mL, the peak concentration (Cmax) came to 0.12 µM and the half-life is 50.4 min.
For the compound `Cc1ccc(C(=O)Nc2cccc3ccc(C)nc23)c(Cl)c1` [Compound A17, 2-Chloro-4-methyl-N-(2-methylquinolin-8-yl)benzamide], in the data set on CSM14.1 cells (dose-response), the concentration for a half-maximal effect (EC50) is 20 to 100 µM. The viability at 5 µM in the data set on human islet microtissues fell in the range of 10 to 20%. Also, in the data set on SERCA (SR vesicles), the “Increase in Vmax at 10 μM” value is recorded as “A′ (A′ represents an increase greater than 50%)”. Moreover, in data set [1] (setting [6]), the total exposure AUC(0-inf) worked out at 0.381 ± 0.066 µg·h/mL, the Cmax was 4.42 ± 0.64 µM, the Tmax came out at 1.2 min and the half-life was 54 min. Moreover, in data set [1] (setting [6]), the AUC(0-t) amounted to 0.38 ± 0.066 µg·h/mL, the MRT inf turned out to be 35.4 min and the Vd came out at 7.01 L/kg. Besides, in [1] (setting [7]), the AUC(0-inf) turned out to be 0.587 ± 0.12 µg·h/mL, the highest level (Cmax) was 1.69 ± 0.74 µM, the Tmax was determined as 15 min and the AUC(0-t) worked out at 0.583 ± 0.119 µg·h/mL. In [1] (setting [7]), the MRT inf was determined as 67.8 min. The same compound had a F in [1] of 31%.
In the case of `CCNc1ccc(C(=O)Nc2cccc3ccc(C)nc23)cc1` [Compound C19, 4-(Ethylamino)-N-(2-methylquinolin-8-yl)benzamide], the “Cell Survival” value in the data set with CSM14.1 cells was “A (A represents a value greater than 50%)”. For the same compound, in the data set with HEK293 cells, the “HEK293 Cells (TG-induced) cell rescue” value was “A (A represents a value greater than 50% cell rescue)”. The “N2a Cells (TG-induced) cell rescue” value in the data set with N2a cells [4] is reported as “B (B represents a value between 10% to 50% cell rescue)”. The “N2a Cells (H2O2-induced) cell rescue” value in the data set on N2a cells [5] is listed as “A (A represents a value greater than 50% cell rescue)”. Besides, in the data set with Ca^2+-ATPase, the “increase in baseline ATPase activity” value is given as 10-15%. In addition, in the data set on ob/ob mice, the blood glucose result is on record as “significantly lowered” and the “glucose level after the last injection” value was “identical to lean mice”. Further, the viability at 5 µM with human islet microtissues lay in the range of 20 to 50%. In addition, in [3], the F is reported as 27%; the “pharmacokinetic properties as measured by CMAX, AUC and F (%)” value is “significantly improved pharmacokinetic properties”; the AUC was 0.344 µg·h/mL; the highest level (Cmax) was 0.85 µM. Further, in data set [3], the half-life is 138 min.
Regarding `Cc1ccc2cccc(NC(=O)c3ccc(NC(C)C)cc3)c2n1` [Compound C20, 4-(Isopropylamino)-N-(2-methylquinolin-8-yl)benzamide], in the data set with CSM14.1 cells, the “Cell Survival” value is “A (A represents a value greater than 50%)”. For the same compound, in the data set on HEK293 cells, the “HEK293 Cells (TG-induced) cell rescue” value was “B (B represents a value between 10% to 50% cell rescue)”. Moreover, the “N2a Cells (TG-induced) cell rescue” value in the data set with N2a cells [4] is “B (B represents a value between 10% to 50% cell rescue)”. The “N2a Cells (H2O2-induced) cell rescue” value in the data set on N2a cells [5] was “B (B represents a value between 10% to 50% cell rescue)”. For the same compound, the “increase in baseline ATPase activity” value in the data set on Ca^2+-ATPase is recorded as “greater than 15%”. In the data set with ob/ob mice, the blood glucose result is given as “significantly lowered” and the “glucose level after the last injection” value is on record as “identical to lean mice”. The viability at 5 µM in the data set with human islet microtissues is 20 to 50%. For the same compound, in [3], the F is 28%; the “pharmacokinetic properties as measured by CMAX, AUC and F (%)” value is recorded as “significantly improved pharmacokinetic properties”; the area under the curve (AUC) was determined as 0.33 µg·h/mL; the Cmax turned out to be 0.86 µM. Besides, the half-life in data set [3] is 39.6 min.
